The structures appear in SMILES notation.

This series in a line: gradient 5% acetonitrile 3 min, to 50% in 2 min, to 85% in 15 min, held 3 min, 100 µL/min. The settings on record: column: Zorbax Extend-C18 2.1 x 50 mm; eluents: water / acetonitrile, 0.1% formic acid. Summed up:
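Using water and acetonitrile that each contained 0.1% formic acid, mixtures of ~100 pure standards were separated at 100 μL/min on a Zorbax Extend-C18 column (2.1 × 50 mm, 1.8 μm). The HPLC fed a quadrupole time-of-flight mass spectrometer working in positive and negative ionization mode, with dead and dwell volumes of 40 μL and 900 μL. Data were acquired over 3 months. Retention time was read from computationally picked adduct peaks after manual inspection of each.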
Turning to `Cc1cc(F)ccc1NC(=O)C1CCCN(c2nc3c(s2)c(C)nn3-c2ccccc2)C1` (stereo not given), the RP-LC retention time was determined as 1140 s.

The molecule `CN(CCNC(=O)C1CCCN(c2nn3c(=O)c4c(nc3s2)CCCC4)C1)Cc1ccccc1` (stereo not given) gave an RP-LC retention time of 624 s. For `O=C(CCC1CCCN(S(=O)(=O)c2ccccc2)C1)NCC1CCCCC1` (stereo not given), the RP-LC retention time amounted to 956 s.

In turn, `O=C(NCc1ccc(Cl)cc1)c1c(O)c2cccnc2n(-c2ccc(F)cc2)c1=O` displayed an RP-LC retention time of 1230 s. For the molecule `O=C(Cn1ncn2nc(-c3cccs3)cc2c1=O)N1CCN(c2ccccn2)CC1`, the RP-LC retention time stood at 622 s. The molecule `CCc1ccc(/C=C2/SC(=S)NC2=O)cc1` displayed an RP-LC retention time of 1070 s. Molecule `COC(=O)c1cc2n(n1)CC(C)(C(=O)NC1CCCCC1)N(c1ccccc1F)C2=O` (stereo not given) gave an RP-LC retention time of 853 s. Consider `CCCc1cc(N2CCN(C(=O)c3ccc(C#N)cc3)CC2)nc2nnc(C)n12`, for which the RP-LC retention time was determined as 610 s. Turning to `Cc1cc(=O)n(CC(=O)Nc2ccc(F)cc2F)c(N2CCCCC2)n1`, the RP-LC retention time was determined as 672 s. `CN(C)c1cccc(C(=O)N2CCC3(C2)C(=O)N(C)c2ccccc23)c1` (stereo not given) yielded an RP-LC retention time of 710 s. On to `CCC(=O)N(C1CCOCC1)C1CCN(S(=O)(=O)c2ccc(Cl)c(C)c2)CC1`, for which the RP-LC retention time was determined as 954 s. `O=C(Cc1cccs1)N1CCCCC1c1nncn1-c1ccccc1` (stereo not given) gave an RP-LC retention time of 712 s. Consider `Nc1ccc(C(=O)c2cccs2)cn1`, for which the RP-LC retention time is 634 s. `Cc1ccc(C2=NN3C(C2)c2ccccc2OC32CCCC2)o1` (stereo not given) had an RP-LC retention time of 942 s. Molecule `COc1ccc(-c2nc3cnccn3c2Nc2ccc(F)cc2)cc1OC` showed an RP-LC retention time of 768 s. For the molecule `O=c1c2cc(-c3ccc4c(c3)OCO4)nn2ccn1Cc1nc(-c2ccc(F)cc2)no1`, the RP-LC retention time came to 1020 s. The molecule `CCCN(CCC)C(=O)Cn1c(C2CCCN2C(=O)CC)nc2ccccc21` (stereo not given) showed an RP-LC retention time of 660 s. As for `CCCCn1nnc(NCc2ccc(-c3ccc(Cl)cc3Cl)o2)n1`, the RP-LC retention time came to 1280 s. `O=C(NCc1ccccn1)c1c[nH]c2ncccc12`: the RP-LC retention time came out at 549 s. Next, `O=C(NCCc1cn2c(n1)SCC2)C(=O)Nc1ccc2c(c1)OCCO2`: 556 s; `COc1cc2c(cc1OC)C(C(=O)NC1CCCCCC1)C(c1cccnc1)N(C)C2=O` (stereo not given): 645 s. Next, `Cc1ccc(NC(=O)COc2cc(C(F)(F)F)c3c(C)nn(C)c3n2)c(C)c1`: 1060 s. Take `Cc1ccc(N2CCN(CC(O)COc3ccccc3)CC2)cc1` (stereo not given): the RP-LC retention time amounted to 698 s. On to `Cc1cccc(N2CCN(S(=O)(=O)c3cc4n(c3)CCCN(C(C)C)C4=O)CC2)c1`, for which the RP-LC retention time amounted to 921 s. `COc1cc(=O)c(C(=O)N2CCC(C(N)=O)CC2)nn1-c1ccc(C)cc1` returned an RP-LC retention time of 604 s. `O=c1n(Cc2ccc(Cl)cc2)nc2ccc(S(=O)(=O)N3CCCC3)cn12` returned an RP-LC retention time of 906 s. Take `Cc1nc(-c2ccncc2)nc2c1CCC(=O)N2CCC1=CCCCC1`: the RP-LC retention time amounted to 912 s. The molecule `Cc1ccc(N2CCC(NC(=O)c3cccc(N(C)C)c3)C2=O)cc1` (stereo not given) displayed an RP-LC retention time of 931 s. Regarding `CCN(C(=O)Nc1ccccc1[N+](=O)[O-])c1nc(-c2ccc(C)cc2)cs1`, the RP-LC retention time is 1410 s. `CC(C)(C)NC(=O)c1ccc2c(c1)CCCN2S(C)(=O)=O`: the RP-LC retention time turned out to be 746 s.

For `CCc1nc2cc(N3CCC(C(=O)NCCN4CCCCCC4)CC3)cnc2nc1CC`, the RP-LC retention time came out at 613 s. Turning to `Cc1ccc(N2CCN(C(=O)c3nnc(-c4ccc(S(=O)(=O)N5CCCC5)cc4)o3)CC2)c(C)c1`, the RP-LC retention time was 1190 s. `Cc1nn(C)c2nc(OC(C)C(=O)NCCc3ccccc3)cc(C(F)(F)F)c12` (stereo not given) gave an RP-LC retention time of 972 s. `O=C(Nc1ccc2c(c1)C(=O)N1CCCCC1CCO2)c1ccc2nsnc2c1` (stereo not given) had an RP-LC retention time of 800 s. Regarding `N#Cc1cccc(S(=O)(=O)NC2CCc3nn(CC4CC4)c(=O)n3CC2)c1` (stereo not given), the RP-LC retention time is 706 s. Next, `COc1ccc(NC(=O)Cn2cc(C(=O)N3CCCC3)c(=O)c3ccc(C)nc32)cc1`: 667 s. As to `CCCN(C)c1nccn2c(=O)n(CC(=O)Nc3ccc(C)cc3Br)nc12`, the RP-LC retention time came to 743 s. `O=C(NCCN1CCOCC1)C1CN(C(=O)c2ccccc2)CC12CCCCC2` (stereo not given) returned an RP-LC retention time of 605 s.

For `CCNC(=O)Nc1ccc(OCC(=O)NCc2cc(OC)cc(OC)c2)nc1`, the RP-LC retention time was 691 s.

With `CCC(c1cccs1)N1C(=O)[C@H]2CN(S(=O)(=O)c3ccc(Cl)cc3)C[C@H]2C1=O` (stereo not given in full), the RP-LC retention time came out at 1060 s. The molecule `COc1cc(C(=O)NCC(=O)Nc2nc3ccccc3[nH]2)cc(OC)c1OC` registered an RP-LC retention time of 617 s. `COC(=O)c1ccc(CSc2nccc3c(OC)cccc23)o1` showed an RP-LC retention time of 1100 s. Next, `Cc1noc(-c2cc(=O)n(CC(=O)Nc3cccc(C)c3C)c3ccccc23)n1`: 890 s. `CC1(C)CC(=O)c2cn(-c3ccc(F)cc3)c(=O)c(C(=O)Nc3ccc4c(c3)OCCO4)c2C1` displayed an RP-LC retention time of 1000 s. Regarding `CC(C)CN1CCN(C(=O)c2cnc(-c3ccccc3)nc2-c2ccncc2)CC1`, the RP-LC retention time came to 646 s.

Molecule `O=C(NCCn1c(=O)n(Cc2ccccc2)c2cccnc21)c1cccnc1` had an RP-LC retention time of 650 s. `Cc1[nH]c(C(=O)N2CCCC(C(=O)NCc3cccc(Cl)c3)C2)c(C)c1C(=O)OC(C)C` (stereo not given) returned an RP-LC retention time of 885 s. Consider `COCCN1C(=O)[C@H]2CN(Cc3ccc(C)c(C)c3)C[C@H]2C1=O`, for which the RP-LC retention time was 577 s. For the molecule `c1ccc(-c2nc(CC3CCNC3)no2)cc1` (stereo not given), the RP-LC retention time came out at 608 s. Molecule `C=CCN(Cc1nc(-c2ccc(C)cc2)no1)C(=O)Nc1cccc(C)c1` had an RP-LC retention time of 1110 s. Molecule `CCCC(=O)NCCc1c2n(c3ccc(OC)cc13)CCCc1ccccc1-2` showed an RP-LC retention time of 1150 s. Take `Cc1nnc(-c2coc(S(=O)(=O)N3CCN(CC(C)C)CC3)c2)o1`: the RP-LC retention time was determined as 587 s. Next, `O=C(Cc1ccsc1)NCC1CCCCC(=O)N1` (stereo not given): 619 s; `CCNC(=O)N1CCCC(c2cccc(C(=O)NCc3ccc(C)o3)c2)C1` (stereo not given): 774 s; `Cc1ccc(NC(=O)C2CCCN(c3ccc4cc(S(=O)(=O)N5CCCC5)ccc4n3)C2)cc1C` (stereo not given): 870 s.

Molecule `CS(=O)(=O)N1CCCN(C(=O)NC2CCCC2)CC1` showed an RP-LC retention time of 636 s. On to `O=C(Cn1nc2nc(N3CCCC3)ccn2c1=O)NCc1ccc(F)c(Cl)c1`, for which the RP-LC retention time worked out at 670 s. `CCc1nc2ccccc2c(=O)n1Cc1noc(-c2ccc3c(c2)OCO3)n1` showed an RP-LC retention time of 964 s. Molecule `Cc1cc(C)c(S(=O)(=O)N2CCc3nc(-c4ccccc4)ncc3C2)cc1C` came in with an RP-LC retention time of 1230 s.

Molecule `O=C(CCc1ccccc1)NC1CCN(c2nnc3ccc(Cl)cn23)CC1` came in with an RP-LC retention time of 739 s. The molecule `Cc1nc(CCNC(=O)C2CCN(S(=O)(=O)c3cccc(C(F)(F)F)c3)CC2)cs1` showed an RP-LC retention time of 776 s. As to `CCOC(=O)CNC(=O)Cn1cnc2c(oc3ccccc32)c1=O`, the RP-LC retention time is 624 s. Regarding `COc1ccc(CC(=O)Nc2ccc(-c3nc(Cn4cccn4)c(C)o3)cc2)cc1`, the RP-LC retention time was determined as 838 s. As to `O=C(COc1ccc(Cl)cc1Cl)NCC1CCN(C(=O)c2ccccc2F)CC1`, the RP-LC retention time stood at 858 s. Next, `COc1cccc(S(=O)(=O)N2CCC3(CC2)C(OC)C(=O)N3c2cccc(F)c2)c1` (stereo not given): 1040 s; `Cc1ccc(-n2nc(N3CCCN(C(=O)Nc4cccc(C)c4)CC3)ccc2=O)cc1`: 802 s; `O=C1NCCc2ccc(NC(=O)C3CC(=O)N(c4ccc(Cl)cc4)C3)cc21` (stereo not given): 661 s. Next, `CCN1CCCn2nc(C3CCN(C(=O)c4cccnc4SC)CC3)cc2C1=O`: 649 s. Next, `O=C(Nc1ccc2c(c1)OCO2)C1CCN(c2cc(N3CCCC3)ncn2)CC1`: 642 s. The molecule `O=C(c1cc2ccccc2[nH]1)N1CCN(c2cc(-c3cccnc3)[nH]n2)CC1` yielded an RP-LC retention time of 630 s.

Regarding `CCCCn1cc(S(=O)(=O)Nc2cccc(C)c2)c2cccnc21`, the RP-LC retention time came to 976 s. The molecule `Cc1nn(-c2nc(-c3ccc(F)cc3)cs2)c(C)c1CC(=O)N1CCc2ccccc2C1` displayed an RP-LC retention time of 1220 s. `COC(=O)c1cccc(C(=O)N2CCc3ccccc32)n1` yielded an RP-LC retention time of 797 s.

`Cc1cc(=O)n(CC(=O)Nc2ccc3c(c2)OCCO3)c(N)n1` came in with an RP-LC retention time of 542 s. Next, `Cc1cccn2cc(C(=O)NCc3cc(F)cc(F)c3)nc12`: 668 s. `CCc1nc2cc3c(cc2n1CC(=O)Nc1ccc(OC)cc1)OCCO3` registered an RP-LC retention time of 640 s.

For the molecule `CC1CCN(S(=O)(=O)c2ccc3nn(Cc4ccc(F)cc4)c(=O)n3c2)CC1`, the RP-LC retention time was determined as 1020 s.

As to `CCc1noc(-c2cccnc2N2CCCN(Cc3ccc(Br)cc3)CC2)n1`, the RP-LC retention time worked out at 730 s. Molecule `CC1(O)CCOC2(CCN(Cc3cccc4[nH]ccc34)CC2)C1` (stereo not given) showed an RP-LC retention time of 589 s. With `COCCn1ccc2nc(C)c(C(=O)NCCc3ccco3)cc2c1=O`, the RP-LC retention time turned out to be 638 s.
